Source: patent US8080367B2, “Regulation of cell survival by HSP90 and IP6K2” (The Johns Hopkins University, priority 2006, dated 2011)
pIC50: −log10 of the molar value. Entries after “also recorded” stand apart in the source; their conditions may differ. Each block holds one molecule with its values, some of them ahead of it.

Tests used:
[1] = tested on: IP6K2; assay: Intracellular localization of IP6K2 (nuclei isolation, fluorescence microscopy); type: cell-based; conditions: for effect on nuclear vs cytosolic myc-IP6K2, nuclei isolation and densitometry: 60 μg total protein per lane, anti-myc blot; for effect on intracellular localization of IP6K2: drug-treated cells
Protocol: FIG. 4A-4F. HSP90 regulates intracellular localization of IP6K2. FIG. 4A. […] Following drug treatment, nuclei were isolated from the rest of the cytoplasm. In each lane, 60 μg of total protein was loaded and the localization of IP6K2 assessed with an anti-myc antibody. Bands were analyzed by densitometry and changes in localization were calculated with the basal distribution of IP6K2 as a control. […] FIG. 4B. GFP-IP6K2 stably expressed in HEK 293 cells is distributed to a similar extent in cytosol and nucleus. Cells were stained with Hoechst stain for nucleus. FIG. 4C. Overexpression of pDSRed-HSP90 in HEK293 stably expressing GFP-IP6K2 retains IP6K2 completely in the cytosol. HSP90 also co-localizes well with IP6K2 as indicated by the yellow color of the merged picture. FIG. 4D. […] FIG. 4E. […] Cells overexpressing HSP90 (arrow a) display co-localization of IP6K2-HSP90 in the cytosol, whereas in cells lacking overexpressed HSP90 (arrow b), IP6K2 is nuclear. FIG. 4F. Effects of HSP90 depletion on intracellular localization of IP6K2. In HeLa, cells transiently expressed GFP-IP6K2 occurs diffusely throughout cells. Depletion of HSP90 by RNAi (depletion is 100% as shown in FIG. 6), leads to nuclear accumulation of IP6K2.
Isolation of nuclei: Nuclei were separated from other cytoplasmic components using commercial kits (See ‘Reagents’ section). Preparation was checked each time by running appropriate controls for nucleus (p84).
Fluorescence microscopy: HeLa cells were transfected with pEGFP+IP6K1/IP6K2/IP6K3, either alone or with pDsRed HSP90α with or without drug or siRNA treatment, fixed with ice cold methanol, stained with Hoechst stain for nucleus and observed under an Ultraview1 confocal microscope.

[2] = tested on: IP6K2; assay: IP7 measurement in vivo (IP6K activity as IP7/IP6 ratio in [3H]inositol labeled cells); conditions: HeLa cells with or without overexpression of IP6K2
[3] = tested on: HeLa cells; assay: Cell death (% apoptotic nuclei) in IP6K2 siRNA depleted cells; type: cell-based; conditions: IP6K2 RNA interference (~40% less IP7 formation)
Source text: (§1) FIG. 5A. […] FIG. 5B. […] FIG. 5C. […] FIG. 5D. […] FIG. 5E.

[4] = tested on: HeLa cells; assay: Cell death / survival (MTT assay) with IP6K2 overexpression; type: cell-based; conditions: HeLa cells transfected with IP6K2
Source text: as §1

[5] = molecular target: T1, IP6K2-HSP90 binding (Homo sapiens, UniProt Q9UHH9); assay: In vitro HSP90-IP6K2 binding assay with purified proteins; conditions: IP6K2 preincubated with increasing concentrations of IP6 15 min, then HSP90 1 h
T1 construct: purified endogenous HSP90 (HeLa); made in house; host or cells: HSP90 purified from HeLa cells (endogenous); myc-IP6K2 immunoprecipitated from transfected HEK 293 cells
T1 sequence (Q9UHH9 1-426): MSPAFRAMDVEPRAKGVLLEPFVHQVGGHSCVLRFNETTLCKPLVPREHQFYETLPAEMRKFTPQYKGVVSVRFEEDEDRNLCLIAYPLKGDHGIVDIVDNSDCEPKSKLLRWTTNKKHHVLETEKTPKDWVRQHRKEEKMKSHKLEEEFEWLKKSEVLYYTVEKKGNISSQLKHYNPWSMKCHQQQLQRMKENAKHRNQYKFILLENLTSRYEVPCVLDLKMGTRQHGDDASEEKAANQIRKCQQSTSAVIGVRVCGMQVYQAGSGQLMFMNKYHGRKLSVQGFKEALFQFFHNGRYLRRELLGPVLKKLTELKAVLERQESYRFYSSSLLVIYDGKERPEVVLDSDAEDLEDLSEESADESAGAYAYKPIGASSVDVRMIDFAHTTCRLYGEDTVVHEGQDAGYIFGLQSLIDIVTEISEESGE
Source text: (§2) FIG. 3A, 3B, 3C. […] FIG. 3E.

[6] = molecular target: T2, IP6K2-HSP90 binding; assay: as above; parameters: species or system human; conditions: purified proteins; 250 nM HSP90 from HeLa preincubated with drug 30 min 37° C., then myc-IP6K2 beads; western blot; read-out: concentration reducing IP6K2-HSP90 binding by 50%
T2 construct: other: purified proteins; 250 nM HSP90 from HeLa preincubated with d
Source text: as §2

[7] = molecular target: IP6K2-HSP90 binding (Homo sapiens, UniProt P07900); assay: Co-immunoprecipitation of HSP90 with IP6K2 from drug-treated cells; type: cell-based; conditions: for effect on IP6K2-HSP90 binding, coimmunoprecipitation: HEK 293 cells; for effect on binding of HSP90 with IP6K2, coimmunoprecipitation: myc-IP6K2-transfected HeLa cells, CP 30 overnight, NB 500 μM overnight, ST 1 μM 6 h, AAG 1 μM overnight
Protocol: as §2
Cell culture: HeLa and HEK 293 were cultured as described (18). […] HEK293 and HeLa cells were transiently transfected using polyfect transfection reagent (Qiagen). siRNAs were transfected with ‘Hiperfect’ transfection reagent (Qiagen).
Co-immunoprecipitation: Cells/mouse brain were homogenised in lysis buffer (20 mM Tris pH 7.4, 150 mM NaCl, 0.5% NP-40, and protease inhibitor cocktails). Equal amounts of protein were immunoprecipitated at 4° C. overnight using the protein A/G agarose beads in the presence of antibody. After immunoprecipitation, beads were washed four times with lysis buffer. Co-immunoprecipitates were resolved by SDS-PAGE and analysed by western blotting.

[8] = tested on: HeLa cells; conditions: reference 10; cited from earlier work
[9] = molecular target: HSP90 (Homo sapiens, UniProt P07900); assay: HSP90 binding to ATP-agarose beads; conditions: increasing concentrations, FIG. 7
Source text: Beads were washed with wash buffer and run on 4-12% SDS-PAGE. Bound HSP90 was detected by western blotting with anti-HSP90 monoclonal antibody.

[10] = tested on: IP6K2-HSP90 binding; assay: In vitro HSP90-IP6K2 binding assay with purified proteins; parameters: species or system human; conditions: data not shown
Source text: as §2

Molecule: C=CCNC1=C2C[C@@H](C)C[C@H](OC)[C@H](O)[C@@H](C)/C=C(\C)[C@H](OC(N)=O)[C@@H](OC)/C=C\C=C(/C)C(=O)NC(=CC1=O)C2=O [AAG, 17-aminoallyl geldanamycin]
effect on nuclear vs cytosolic myc-IP6K2, nuclei isolation and densitometry [1]: elicits the opposite effect
effect on intracellular localization of IP6K2 [1]: increases IP6K2 localization in the cytosol
effect on IP6K2 activity / IP7 formation in cells [2]: diminishes IP6K activity; also recorded: less IP7 formation
change of drug-elicited cell death in IP6K2 depleted cells [3]: unaffected by IP6K2 depletion
change of drug's apoptotic action on IP6K2 overexpression [4]: unaffected by IP6K2 overexpression

effect of IP6 on in vitro binding of HSP90 to myc IP6K2 [5]: abolished
Molecule: O=P(O)(O)O[C@H]1[C@H](OP(=O)(O)O)[C@@H](OP(=O)(O)O)[C@H](OP(=O)(O)O)[C@@H](OP(=O)(O)O)[C@H]1OP(=O)(O)O [IP6]

Molecule: N.N.[Cl][Pt][Cl] [cisplatin]
effect on intracellular localization of IP6K2 [1]: enhance nuclear levels of IP6K2
effect on IP6K2 activity / IP7 formation in cells [2]: augmented IP6K2 activity
effect on IP6K2 activity / IP7 formation in cells ([2]; listed as CP): increase IP6K activity
change of drug-elicited cell death in IP6K2 depleted cells [3]: reduced by almost half
pIC50 [6]: 5.30 to 6.00
effect on IP6K2-HSP90 binding, coimmunoprecipitation [7]: diminish IP6K2-HSP90 binding
effect on binding of HSP90 with IP6K2, coimmunoprecipitation [7]: disrupt the binding of HSP90 with IP6K2
change of drug's apoptotic action on IP6K2 overexpression [4]: markedly enhanced by IP6K2 overexpression

Molecule: CO[C@@H]1[C@@H](OC(N)=O)[C@@H](O)[C@H](Oc2ccc3c(O)c(NC(=O)c4ccc(O)c(CC=C(C)C)c4)c(=O)oc3c2C)OC1(C)C [novobiocin]
effect on nuclear vs cytosolic myc-IP6K2, nuclei isolation and densitometry [1]: increases nuclear and decreases cytosolic IP6K2
effect on intracellular localization of IP6K2 [1]: enhance nuclear levels of IP6K2
effect on IP6K2 activity / IP7 formation in cells [2]: augmented IP6K2 activity
effect on IP6K2 activity / IP7 formation in cells ([2]; listed as NB): increase IP6K activity
change of drug-elicited cell death in IP6K2 depleted cells [3]: reduced by almost half
pIC50 [6]: ~3.70
change of drug's apoptotic action on IP6K2 overexpression [4]: markedly enhanced by IP6K2 overexpression

Molecule: CN[C@@H]1C[C@H]2O[C@@](C)([C@@H]1OC)n1c3ccccc3c3c4c(c5c6ccccc6n2c5c31)C(=O)NC4 [staurosporine]
effect on intracellular localization of IP6K2 [1]: elicits mitochondrial translocation of IP6K2
change of drug's apoptotic effects on IP6K2 depletion, previously reported [8]: IP6K2 depletion prevents the apoptotic effects
effect on IP6K2 activity / IP7 formation in cells [2]: augmented IP6K2 activity
effect on IP6K2 activity / IP7 formation in cells ([2]; listed as ST): increase IP6K activity
effect on IP6K2-HSP90 binding, coimmunoprecipitation [7]: diminish IP6K2-HSP90 binding
effect on binding of HSP90 with IP6K2, coimmunoprecipitation [7]: disrupt the binding of HSP90 with IP6K2
effect on HSP90 binding to ATP-agarose beads [9]: inhibits binding of HSP90 to ATP-agarose beads in a concentration dependent manner
change of drug's apoptotic action on IP6K2 overexpression [4]: markedly enhanced by IP6K2 overexpression

Molecule: p23: a co-chaperone which binds HSP90 with high affinity
effect of p23 on in vitro IP6K2-HSP90 binding [10]: only influences in vitro IP6K2-HSP90 binding at a high molar ratio (1:20)
effect of p23 on IP6K2-HSP90 coprecipitation ([7]; HeLa cells, data not shown): does not affect their coprecipitation in HeLa cells
